Tested on: SHRs (Spontaneously Hypertensive Rats)
Test: Systolic blood pressure of spontaneously hypertensive rats by Tail-Cuff method after administration in drinking water
Assay type: in vivo, rat
From the text: In this case, losartan (an angiotensin-receptor antagonist), enalapril (an angiotensin-converting enzyme inhibitor), amlodipine (a calcium channel blocker), and diltiazem (a calcium channel blocker) were used as representative examples of the antihypertensive agent (b). Twelve-week-old male SHRs (Spontaneously Hypertensive Rats) were used for experiment after subjecting them to quarantine for 1 week or more. At 15 or 16 weeks old, the SHRs were trained for blood pressure measurement with a Tail-Cuff method sphygmomanometer (BP-2000, Visitech systems, Napa Place, N.C., USA) for 1 to 2 weeks. After completing the training, they underwent blood pressure measurement at 17 to 18 weeks old. The animals were divided into 4 groups (10 for each) by taking care not to cause a bias in the systolic blood pressure, and the drug administration was started. Tap water was administered to a first group as a control group. A solution of each test material dissolved in tap water was administered to second to fourth groups. That is, febuxostat was administered to the second group, each antihypertensive agent of losartan, enalapril, amlodipine or diltiazem to the third group, and the mixture of febuxostat and the antihypertensive agents administered to the third group as combined administration to the fourth group. The dose of each agent was calculated from the concentration in the solution, the amount of drinking water, and the weight of the rats. After administration was carried out for 2 to 6 weeks, the value of their systolic blood pressure were measured by Tail-Cuff method.

[1] = male SHR, before administration (baseline of the group), Table 3 study, each agent 3 mg/kg/day
[2] = male SHR, 14th day after administration, each agent 3 mg/kg/day in tap water, alone or combined, Table 1 study (tap water group 233 ± 4)
[3] = male SHR, before administration (baseline of the group), Table 1 study, each agent 3 mg/kg/day
[4] = male SHR, 42nd day after administration, each agent 3 mg/kg/day in tap water, alone or combined, Table 2 study (tap water group 226 ± 4)
[5] = male SHR, before administration (baseline of the group), Table 2 study, each agent 3 mg/kg/day

SMILES | systolic blood pressure (mean value±standard error) [1] [mmHg] | systolic blood pressure (mean value±standard error) [2] [mmHg] | systolic blood pressure (mean value±standard error) [3] [mmHg] | systolic blood pressure (mean value±standard error) [4] [mmHg] | systolic blood pressure (mean value±standard error) [5] [mmHg] | also measured
CCOC(=O)C1=C(COCCN)NC(C)=C(C(=O)OC)C1c1ccccc1Cl (centres unmarked) [amlodipine] | 228 ± 3 |  |  |  |  | systolic blood pressure (mean value±standard error) (rat, in vivo): 219 ± 3 mmHg
CCCCc1nc(Cl)c(CO)n1Cc1ccc(-c2ccccc2-c2nn[nH]n2)cc1 [losartan] |  | 215 ± 2 | 232 ± 4 |  |  | 
COc1ccc([C@@H]2Sc3ccccc3N(CCN(C)C)C(=O)[C@@H]2OC(C)=O)cc1 [diltiazem] |  |  |  |  |  | systolic blood pressure (mean value±standard error) (male SHR, 42nd day after administration, diltiazem 100 mg/kg/day in tap water, Table 4 study (tap water group 233 ± 3)): 231 ± 4 mmHg; systolic blood pressure (mean value±standard error) (male SHR, before administration (baseline of the group), Table 4 study, diltiazem 100 mg/kg/day): 229 ± 4 mmHg
Cc1nc(-c2ccc(OCC(C)C)c(C#N)c2)sc1C(=O)O [febuxostat, 2-(3-cyano-4-isobutyloxyphenyl)-4-methyl-5-thiazolecarboxylic acid] | 228 ± 4 | 219 ± 4 | 230 ± 4 | 213 ± 5 | 230 ± 3 | systolic blood pressure (mean value±standard error) (male SHR, 14th day after administration, each agent 3 mg/kg/day in tap water, alone or combined, Table 3 study (tap water group 229 ± 3)): 215 ± 4 mmHg; systolic blood pressure (mean value±standard error) (male SHR, 42nd day after administration, febuxostat 3 mg/kg/day in tap water, Table 4 study (tap water group 233 ± 3)): 227 ± 4 mmHg; antihypertensive action (result in words) (male SHR, administration for 2 to 6 weeks in drinking water): antihypertensive action; systolic blood pressure (mean value±standard error) (male SHR, before administration (baseline of the group), Table 4 study, febuxostat 3 mg/kg/day): 230 ± 5 mmHg
CCOC(=O)[C@H](CCc1ccccc1)N[C@@H](C)C(=O)N1CCC[C@H]1C(=O)O [enalapril] |  |  |  | 220 ± 5 | 232 ± 5 | 

Source: patent publication US9545445B2, “Therapeutic drug for hypertension or prehypertension” (Teijin Pharma Limited, priority 2009, dated 2017)
